Here are results for 17 molecules from ChEMBL document CHEMBL1201862, “PubChem BioAssay data set” (2004).

Some test systems named below: NCI-H23; CCRF-CEM; IGROV-1; SK-MEL-5; UACC-257; SK-MEL-2; KM-20L2; ACHN; COLO 205; HCC 2998; UO-31; NCI/ADR-RES; MCF7; T47D; BT-549; MDA-MB-435; MDA-N; PC-3; Hs-578T; MDA-MB-231.
Holding throughout (test): DTP human tumour cell line panel, 48 h

Molecules are shown by their SMILES. Where “and” joins values, the source holds several entries; their conditions need not be identical. Identical values can stand only once.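 Exposure lasted 48 hours, with cells grown in 96-well plates and compounds tested at five concentrations. GI50 is the concentration that inhibits growth by half.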 Calls of active or inactive are those of the source. No stated cut-off is given here; in the data, active = GI50 up to about 1.1 µM and inactive = higher.

By GI50 is commonly meant the concentration giving 50% growth inhibition. For `O=C(NCCCOC(=O)CCCCCCCCC(=O)OCCCNC(=O)NC(=O)c1c[nH]c(=O)[nH]c1=O)NC(=O)c1c[nH]c(=O)[nH]c1=O`, the GI50 in the assay on NCI-H23 is 45.1 µM (inactive); in the assay on CCRF-CEM, > 100 µM (inactive); in the assay on IGROV-1, > 100 µM (inactive); with SK-MEL-5 it was > 100 µM (inactive); in the assay on UACC-257 it was > 100 µM (inactive); with SK-MEL-2 it was > 100 µM (inactive). In addition, the GI50 in the assay on KM-20L2, in the assay on ACHN, in the assay on COLO 205 and in the assay on HCC 2998 was > 100 µM (inactive) throughout.
On to `Cn1nc2ccc3nccc(N(CCO)CCO)c3c2n1`, for which the GI50 with NCI-H23, with CCRF-CEM, with IGROV-1, in the assay on SK-MEL-5, in the assay with UACC-257 and in the assay with SK-MEL-2 was > 100 µM (inactive) in each case. The GI50 in the assay on UO-31, in the assay on KM-20L2, with ACHN, with COLO 205 and in the assay with HCC 2998 was > 100 µM (inactive) throughout.
As for `Brc1nc2c3ccccc3ncn2c1Br`, the GI50 with NCI-H23 was 20.7 µM (inactive); with CCRF-CEM it was 25.5 µM (inactive); with IGROV-1, 35.9 µM (inactive); in the assay with SK-MEL-5, 18.3 µM (inactive); with UACC-257 it was 33 µM (inactive); with SK-MEL-2, 27.5 µM (inactive). Besides, the GI50 was 36.7 µM (inactive) in the assay on UO-31; 28.4 µM (inactive) with KM-20L2; 19.6 µM (inactive) in the assay with ACHN; 16.3 µM (inactive) in the assay with COLO 205; 46.9 µM (inactive) in the assay with HCC 2998.
Consider `CCN(CC)CC1CCCCCCCCCCC1=O` (centres undefined), for which the GI50 in the assay on NCI-H23, in the assay on CCRF-CEM, in the assay on IGROV-1, with SK-MEL-5, in the assay with UACC-257 and in the assay with SK-MEL-2 was > 100 µM (inactive) throughout. Also, the GI50 in the assay with UO-31, in the assay with KM-20L2, with ACHN, with COLO 205 and in the assay with HCC 2998 was > 100 µM (inactive) each time.
For the molecule `CC(C)OP(=O)(OC(C)C)c1nc(-c2ccccc2)n(-c2ccc([N+](=O)[O-])cc2)n1`, the GI50 is > 100 µM (inactive) in the assay on NCI-H23; > 100 µM (inactive) in the assay on CCRF-CEM; > 100 µM (inactive) in the assay with IGROV-1; > 100 µM (inactive) with SK-MEL-5; > 100 µM (inactive) with UACC-257; 50.8 µM (inactive) with SK-MEL-2. The GI50 in the assay with UO-31, in the assay on KM-20L2, with ACHN, with COLO 205 and with HCC 2998 was > 100 µM (inactive) each time.
Regarding `COc1ccccc1CC(C)N` (centres undefined), the GI50 in the assay with NCI-H23, in the assay with CCRF-CEM, with IGROV-1, in the assay with SK-MEL-5, in the assay with UACC-257 and with SK-MEL-2 was > 100 µM (inactive) each time. Besides, the GI50 with UO-31, with KM-20L2, with ACHN, with COLO 205 and in the assay on HCC 2998 was > 100 µM (inactive) throughout.
As for `O=C1/C(=N\O)c2ccccc2S1(=O)=O`, the GI50 with CCRF-CEM was 60 µM (inactive); in the assay with IGROV-1, > 100 µM (inactive); with SK-MEL-5 it was > 100 µM (inactive); in the assay on UACC-257, > 100 µM (inactive); in the assay on SK-MEL-2, > 100 µM (inactive); in the assay on UO-31, > 100 µM (inactive). Further, the GI50 in the assay with KM-20L2 is > 100 µM (inactive); in the assay on ACHN it was > 100 µM (inactive); with COLO 205, 13.6 µM (inactive); in the assay on HCC 2998 it was 18.4 µM (inactive).
As for `Cc1cccc(C)c1NC(=O)CCc1nnc2s/c(=C\c3ccc(N(C)C)cc3)c(=O)n12`, the GI50 with NCI-H23 is > 100 µM (inactive); in the assay on CCRF-CEM, 38.6 µM (inactive); in the assay with IGROV-1, > 100 µM (inactive); with SK-MEL-5, > 100 µM (inactive); with UACC-257, > 100 µM (inactive); in the assay with SK-MEL-2, > 100 µM (inactive). In addition, the GI50 in the assay with UO-31, with KM-20L2, in the assay with ACHN, with COLO 205 and in the assay on HCC 2998 was > 100 µM (inactive) in each case.
On to `CCOC(=O)C(=C=C=C(c1ccccc1)c1ccccc1)C(=O)OCC`, for which the GI50 in the assay with NCI-H23 is 38.5 µM (inactive); with CCRF-CEM, 3.52 µM (inactive); in the assay with IGROV-1, 18.1 µM (inactive); in the assay with SK-MEL-5 it was > 10 µM (inactive); with UACC-257 it was 16.8 µM (inactive); in the assay with SK-MEL-2, 16.6 µM (inactive). The GI50 was 18.6 µM (inactive) in the assay on UO-31; 20.9 µM (inactive) in the assay on KM-20L2; 21.4 µM (inactive) with ACHN; 16.7 µM (inactive) in the assay with COLO 205; 25 µM (inactive) in the assay with HCC 2998.
On to `CCCCS(=O)(=O)Nc1ccc(Nc2c3ccccc3nc3ccccc23)c(OC)c1`, for which the GI50 was 1.11 µM (active) in the assay with NCI-H23; 0.338 µM (active) in the assay on CCRF-CEM; 5.57 µM (inactive) in the assay with IGROV-1; 5.2 µM (inactive) in the assay with SK-MEL-5; 6 µM (inactive) in the assay with UACC-257; 16.9 µM (inactive) in the assay on SK-MEL-2. The GI50 in the assay with UO-31 is 1.5 µM (inactive); with KM-20L2, 3.14 µM (inactive); with NCI/ADR-RES, 5.36 µM (inactive); with MCF7, 1.13 µM (inactive); in the assay on COLO 205, 5.78 µM (inactive); with HCC 2998, 3.21 µM (inactive).
Consider `CC1=C(C(=O)Nc2ccc(Cl)c(Cl)c2)C(c2ccc([N+](=O)[O-])cc2)C(C(=O)Nc2ccc(Cl)c(Cl)c2)=C(C)N1`, for which the GI50 with NCI-H23 is 2.21 µM (inactive); with IGROV-1, 3.2 µM (inactive); in the assay with SK-MEL-5, 1.67 µM (inactive); with UACC-257, 2.51 µM (inactive); in the assay on SK-MEL-2, 2.1 µM (inactive); with UO-31, 2.69 µM (inactive). For the same molecule, the GI50 in the assay with KM-20L2 was 1.66 µM (inactive); in the assay on ACHN, 3.09 µM (inactive); in the assay with COLO 205 it was 1.71 µM (inactive); in the assay on HCC 2998, 2 µM (inactive).
On to `CC(=O)O/C=C(/C=C/OC(C)=O)C(C/C=C(\C)C#CC=C(C)C)OC(C)=O` (centres undefined), for which the GI50 in the assay on NCI-H23 is 38.6 µM (inactive); with CCRF-CEM, 26.1 µM (inactive); with IGROV-1, 30.4 µM (inactive); in the assay on SK-MEL-5, 72.6 µM (inactive); in the assay with UACC-257, 33.7 µM (inactive); in the assay on SK-MEL-2, > 100 µM (inactive). Also, the GI50 in the assay with UO-31 was 58.2 µM (inactive); with KM-20L2 it was 53.1 µM (inactive); in the assay with ACHN, 61.1 µM (inactive); with COLO 205 it was 27.9 µM (inactive); with HCC 2998, > 100 µM (inactive).
As for `COC(=O)NNc1c([N+](=O)[O-])cnn(-c2ccccc2)c1=O`, the GI50 in the assay on T47D is 2.21 µM (inactive); in the assay on BT-549, 1.82 µM (inactive); in the assay with NCI-H23 it was 2.67 µM (inactive); with CCRF-CEM, 0.302 µM (active); in the assay on IGROV-1 it was 17.9 µM (inactive); with SK-MEL-5 it was 4.07 µM (inactive). For the same molecule, the GI50 was 2.51 µM (inactive) in the assay with UACC-257; 2.95 µM (inactive) with SK-MEL-2; 8.93 µM (inactive) in the assay on UO-31; 1.66 µM (inactive) in the assay with MDA-MB-435; 3.37 µM (inactive) in the assay on KM-20L2; 2.85 µM (inactive) in the assay with MDA-N. The GI50 with ACHN was 4.44 µM (inactive); with MCF7, 3.99 µM (inactive); in the assay on PC-3, 1.79 µM (inactive); in the assay on COLO 205, 2.11 µM (inactive); in the assay on HCC 2998, 5.36 µM (inactive); in the assay with Hs-578T, 4.53 µM (inactive).
As to `CC(=O)CCC1(c2ccccc2)OC(=O)C(C#N)=C1c1ccccc1` (centres undefined), the GI50 in the assay on NCI-H23 is > 100 µM (inactive); in the assay with CCRF-CEM, 43.5 µM (inactive); in the assay with IGROV-1 it was > 100 µM (inactive); with SK-MEL-5, > 100 µM (inactive); in the assay with UACC-257, > 100 µM (inactive); in the assay on SK-MEL-2, > 100 µM (inactive). For the same molecule, the GI50 in the assay with UO-31 is 29.2 µM (inactive); in the assay with KM-20L2, > 100 µM (inactive); in the assay on ACHN, > 100 µM (inactive); in the assay on COLO 205, > 100 µM (inactive); with HCC 2998, > 100 µM (inactive).
As for `O=c1[nH]c(C2CCCCC2)nc2ccc(Cl)cc12`, the GI50 was > 100 µM (inactive) in the assay with NCI-H23; 41.3 µM (inactive) in the assay on IGROV-1; > 100 µM (inactive) with SK-MEL-5; > 100 µM (inactive) with UACC-257; > 100 µM (inactive) in the assay on SK-MEL-2; 93.3 µM (inactive) with UO-31. For the same molecule, the GI50 in the assay with KM-20L2, with ACHN, in the assay with COLO 205 and in the assay on HCC 2998 was > 100 µM (inactive) in each case.
On to `CC(=O)O[C@H]1C=CC(=O)C(C)CC1C` (some centres undefined), for which the GI50 in the assay with NCI-H23 was 75.9 µM (inactive); in the assay with CCRF-CEM, 60.1 µM (inactive); with IGROV-1, > 100 µM (inactive); in the assay with SK-MEL-5 it was > 100 µM (inactive); with UACC-257, > 100 µM (inactive); in the assay on SK-MEL-2 it was > 100 µM (inactive). Besides, the GI50 in the assay with UO-31 is > 100 µM (inactive); in the assay on KM-20L2 it was > 100 µM (inactive); with ACHN, > 100 µM (inactive); in the assay with COLO 205, 55.8 µM (inactive); in the assay with HCC 2998, > 100 µM (inactive).
For `OC(CBr)C(O)C(O)C(O)CBr` (centres undefined), the GI50 in the assay with T47D was > 100 µM (inactive); in the assay on MDA-MB-231, > 100 µM (inactive); in the assay on BT-549, 28.2 µM (inactive); with CCRF-CEM it was 14.3 µM (inactive) and > 21.6 µM (inactive); in the assay with UACC-257, > 69 µM (inactive) and > 64 µM (inactive); in the assay with SK-MEL-2, > 100 µM (inactive) and > 66.2 µM (inactive). Further, the GI50 with MDA-MB-435 is > 61.2 µM (inactive); in the assay on KM-20L2, > 100 µM (inactive); in the assay on MDA-N it was > 45.9 µM (inactive); in the assay on ACHN it was 8.09 µM (inactive); in the assay on PC-3 it was > 81.1 µM (inactive); in the assay with COLO 205, > 53.6 µM (inactive). Moreover, the GI50 was > 100 µM (inactive) and > 72.8 µM (inactive) in the assay on HCC 2998; > 100 µM (inactive) in the assay with Hs-578T.
